Laboratory results taken from patent US12150447B2, “Plant growth regulator” (University of Washington, priority 2017, dated 2024).

Key:
[1] = molecular target: T1, mutant auxin receptor (TIR1 F79S) (Arabidopsis thaliana, UniProt Q570C0, F79S); assay: Evaluation of binding to auxin receptor (yeast two-hybrid assay), mutant TIR1 F79S; conditions: yeast two-hybrid according to Test Example 1
T1 construct: expressed in transfected cells; host or cells: Saccharomyces cerevisiae strain EGY48

[2] = molecular target: T2, mutant auxin receptor (TIR1 F79A) (Arabidopsis thaliana, UniProt Q570C0, F79A); assay: Evaluation of binding to auxin receptor (yeast two-hybrid assay), mutant TIR1 F79A; conditions: yeast two-hybrid according to Test Example 1
T2 construct: expressed in transfected cells; host or cells: Saccharomyces cerevisiae strain EGY48

[3] = molecular target: T3, wild-type auxin receptor (TIR1) (Arabidopsis thaliana, UniProt Q570C0); assay: Evaluation of binding to auxin receptor (yeast two-hybrid assay), wild-type receptor; conditions: yeast EGY48, LacZ reporter, X-gal, 30° C. for 3 days; wild type auxin receptor with AUX/IAA protein
T3 construct: expressed in transfected cells; host or cells: Saccharomyces cerevisiae strain EGY48
T3 sequence (Q570C0 1-594): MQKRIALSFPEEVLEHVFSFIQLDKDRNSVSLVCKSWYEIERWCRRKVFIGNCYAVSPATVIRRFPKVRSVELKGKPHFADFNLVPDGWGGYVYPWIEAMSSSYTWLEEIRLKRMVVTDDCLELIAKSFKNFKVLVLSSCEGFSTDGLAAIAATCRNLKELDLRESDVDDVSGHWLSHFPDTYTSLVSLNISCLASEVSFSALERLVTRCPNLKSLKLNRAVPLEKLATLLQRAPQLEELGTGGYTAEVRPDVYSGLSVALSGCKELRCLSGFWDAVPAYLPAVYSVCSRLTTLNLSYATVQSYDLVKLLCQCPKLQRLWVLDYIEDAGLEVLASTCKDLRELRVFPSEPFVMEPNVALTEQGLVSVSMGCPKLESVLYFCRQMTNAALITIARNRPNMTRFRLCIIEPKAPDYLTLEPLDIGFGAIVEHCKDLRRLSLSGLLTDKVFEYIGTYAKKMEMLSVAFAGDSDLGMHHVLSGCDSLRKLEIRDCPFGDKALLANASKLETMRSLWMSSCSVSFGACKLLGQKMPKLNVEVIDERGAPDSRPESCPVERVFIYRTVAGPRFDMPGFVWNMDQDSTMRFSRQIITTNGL
T3 sequence (Q38822 1-93 partner limits assumed): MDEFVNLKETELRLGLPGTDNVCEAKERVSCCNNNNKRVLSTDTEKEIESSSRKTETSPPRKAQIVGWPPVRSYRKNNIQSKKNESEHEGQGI
Experimental: (§1) Test Example 1: Evaluation of Binding to Auxin Receptor (Yeast Two-Hybrid Assay
(§2) Specifically, the inventors set up the assay in the following manner.
The transformant was cultured at 30° C. on an agar plate made of yeast growth medium (minimal SD base and -His/-Trp/-Ura dropout supplement). The colonies were picked up and incubated overnight in liquid SD/-His/-Trp/-Ura medium at 30° C. Afterwards, the medium was replaced with a liquid medium composed of minimal SD/Gal/Raf base, -His/-Trp/-Ura dropout supplement, 50 mM Na-phosphate buffer (pH 7.0), […] X-gal, and various concentrations of test compounds. After incubation at 30° C. for 3 days, the medium containing yeast was transferred to a white 96-well plate (flat bottom) and observed.
(§3) In Table 1, the concentration of “wt TIR” indicates the minimum concentration of the test compound in which the well turns blue when the wild type auxin receptor is used, whereas the concentration of “mut” indicates the minimum concentration of the test compound in which the well turns blue when the mutant auxin receptor (TIR1 F79G) is used.

[4] = molecular target: T4, mutant auxin receptor (TIR1 F79G) (Arabidopsis thaliana, UniProt Q570C0, F79G); assay: Evaluation of binding to auxin receptor (yeast two-hybrid assay), mutant TIR1 F79G; conditions: for TIR1 F79G: minimum concentration of the test compound at which the well turns blue: Table 2, repeated from Test Example 1, Table 1 for comparison; for mut TIR: minimum concentration of the test compound in which the well turns blue: yeast EGY48, LacZ reporter, X-gal, 30° C. for 3 days, TIR1 F79G with AUX/IAA protein
T4 construct: expressed in transfected cells; host or cells: Saccharomyces cerevisiae strain EGY48
Excerpt: as §1, §2
Yeast strain EGY48 was transformed into a plasmid (pSH18-34) containing a LacZ expression cassette (LexA-operon: LacZ reporter) that is transcriptionally regulated by the LexA-operon, a plasmid derived from pGLex313 containing an expression cassette of LexA-DNA-binding domain fusion protein A (the wild-type auxin receptor: SEQ ID NO. 1, or mutant auxin receptor (TIR1 F79G) where the amino acid residue 79 (phenylalanine) in the wild-type is mutated to a glycine: SEQ ID NO. 2), and a plasmid derived from pJG4-5 containing an expression cassette of B42 transcription activator fusion protein B (AUX/IAA protein: SEQ ID NO: 3). The transformant was cultured at 30° C. on an agar plate made of yeast growth medium (minimal SD base and -His/-Trp/-Ura dropout supplement). The colonies were picked up and incubated overnight in liquid SD/-His/-Trp/-Ura medium at 30° C. Afterwards, the medium was replaced with a liquid medium composed of minimal SD/Gal/Raf base, -His/-Trp/-Ura dropout supplement, 50 mM Na-phosphate buffer (pH 7.0), […] X-gal, and various concentrations of test compounds. After incubation at 30° C. for 3 days, the medium containing yeast was transferred to a white 96-well plate (flat bottom) and observed. The lower the concentration of the test compound when blue color appears, the higher the binding between the test compound and the auxin receptor (wild type or mutant) is. Conversely, higher the concentration of test compound when the blue color appears for the first time, the lower the binding between the test compound and the auxin receptor (wild type or mutant).
as §3

[5] = test system: Arabidopsis seeds expressing the mutant auxin receptor (TIR1 F79G); assay: Root elongation assay (Test Example 5), TIR1 F79G seeds; type: in vivo; conditions: 35S:TIR1 F79G seeds, 0.1 μM; FIG. 4
Experimental: (§4) FIG. 4 This is a diagram showing the results of root elongation assay in Test Example 5. On the left side of the photo, “35S:TIR1^F79G” indicates experiments using Arabidopsis seeds having an expression cassette of a mutant auxin receptor (TIR1 F79G), whereas “35S:TIR1^WT” indicates Arabidopsis seeds expressing the wild type auxin receptor (TIR1). On the upper part of the photo, “DMSO” indicates experiments where the plants are not treated with test compounds, “IAA(1) 0.1 μM” indicates experiments where auxin (indole-3-acetic acid) is used as the test compound, and “21 0.1 μM” indicates experiments where the auxin derivative synthesized in Example 30 is used as the test compound.
(§5) Arabidopsis seeds having the expression cassette of mutant auxin receptor (TIR1 F79G) (SEQ ID NO: B) or wild-type Arabidopsis seeds without said expression cassette were sterilized and stored at 4° C. in the dark for several days. The seeds were transferred to 0.5× Murashige and Skoog (MS) liquid medium and incubated for 1 day at 22° C. in the light with shaking at 140 rpm. The test compound was added to the medium at various concentrations and the seeds were further incubated for 1 week. […] If an auxin response signal has been produced in the root, root elongation will be suppressed.
(§6) Test Example 5: Evaluation of Plant Growth Regulating Action 4 (Root Elongation Assay […]

[6] = test system: wild-type Arabidopsis seeds; assay: Root elongation assay (Test Example 5), wild-type seeds; type: in vivo; conditions: wild-type seeds (35S:TIR1 WT in FIG. 4), 0.1 μM
Experimental: as §4, §5, §6

T4 sequence (Q570C0 whole entry F79G, one chain of several): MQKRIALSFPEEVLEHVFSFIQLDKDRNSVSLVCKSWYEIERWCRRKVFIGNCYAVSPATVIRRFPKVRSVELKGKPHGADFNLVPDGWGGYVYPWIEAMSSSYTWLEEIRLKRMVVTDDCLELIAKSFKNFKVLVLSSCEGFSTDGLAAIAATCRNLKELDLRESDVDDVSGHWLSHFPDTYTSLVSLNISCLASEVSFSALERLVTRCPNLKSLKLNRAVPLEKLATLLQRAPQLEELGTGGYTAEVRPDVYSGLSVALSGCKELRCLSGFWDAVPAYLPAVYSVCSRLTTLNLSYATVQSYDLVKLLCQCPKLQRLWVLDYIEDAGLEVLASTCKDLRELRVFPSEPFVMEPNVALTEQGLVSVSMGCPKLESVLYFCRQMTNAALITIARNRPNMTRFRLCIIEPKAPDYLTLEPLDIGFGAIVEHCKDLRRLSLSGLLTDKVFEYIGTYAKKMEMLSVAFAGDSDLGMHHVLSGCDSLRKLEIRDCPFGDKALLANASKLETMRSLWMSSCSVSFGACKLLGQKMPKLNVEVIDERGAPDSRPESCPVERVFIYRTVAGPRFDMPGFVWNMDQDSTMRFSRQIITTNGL
T1 sequence (Q570C0 whole entry F79S, one chain of several): as the sequence (Q570C0 whole entry F79G, one chain of several) above, with G79S counted along it
T2 sequence (Q570C0 whole entry F79A, one chain of several): as the sequence (Q570C0 whole entry F79G, one chain of several) above, with G79A counted along it

Compound	TIR1 F79S: minimum concentration of test compound at which the well turns blue [1]	TIR1 F79A: minimum concentration of the test compound at which the well turns blue [2]	wt TIR: minimum concentration of the test compound in which the well turns blue [3]	TIR1 F79G: minimum concentration of the test compound at which the well turns blue [4]	mut TIR: minimum concentration of the test compound in which the well turns blue [4]	inhibition of root elongation [5]	inhibition of root elongation [6]
O=C(O)Cc1c[nH]c2ccc(C3CCCCC3)cc12 [Compound 15, 2-(5-cyclohexyl-1H-indol-3-yl)acetic acid]	0.001 µM	0.0001 µM	0.1 µM	0.001 µM	0.001 µM	–	–
O=C(O)Cc1c[nH]c2ccc(C34CC5CC(CC(C5)C3)C4)cc12 [Compound 21, 2-(5-((3r, 5r, 7r)-adamantan-1-yl)-1H-indol-3-yl)acetic acid]	0.0001 µM	0.00001 µM	0.1 µM	0.001 µM	0.001 µM	inhibited root elongation	does not inhibit root elongation
Cc1ccc(COc2ccc3[nH]cc(CC(=O)O)c3c2)cc1 [MK-350, 2-(5-((4-methylbenzyl)oxy)-1H-indol-3-yl)acetic acid]	–	–	>100 µM	–	100 µM	–	–
Cc1cc(C)cc(-c2ccc3[nH]cc(CC(=O)O)c3c2)c1 [MK-379, 2-(5-(3,5-dimethylphenyl)-1H-indol-3-yl)acetic acid]	–	–	100 µM	–	1 µM	–	–
CCCCOc1ccc2[nH]cc(CC(=O)O)c2c1 [RY-215, 2-(5-(butyloxy)-1H-indol-3-yl)acetic acid, reference compound]	–	–	10 µM	–	0.1 µM	–	–
